Source: patent US20040143865A1, “Transgenic zebrafish models for angiogenesis” (priority 2002, published 2004)
“Also recorded” adds a separate entry of the source.

Tests used:
mouse xenograft models = mouse xenograft models (Shaheen et al., 1999); cited from earlier work
[1] = patients treated in clinical trials; cited from earlier work
[2] = tested on: TG(VEGFR2:G-RCFP) transgenic zebrafish embryos; test: Angiogenesis inhibitor assay in TG(VEGFR2:G-RCFP) transgenic zebrafish embryos with fluorescent blood vessels; settings: for Intersegmental vessel formation: treated overnight from 13-somite stage (approximately 15 hpf); for Phenotypic response: cell wrapped over the compound's rows, in full: Dorsal aorta, caudal veins, present. Intersegmental vessels absent. Cranial vessels reduced in number.; for Concentrations of the compounds required to see these effects (complete block of intersegmental vessel formation) / Blood vessels in the head that form by angiogenesis: overnight application; for Blood vessels in the head that form by angiogenesis: 10 μM for SU5416 and 15 μM for SU6668; for Effect on pre-existing blood vessels: six-hour treatment at 24 hpf, well-established primary vasculature not affected; for Migration pattern of VEGFR2 expressing cells toward the midline: treated embryos at the 18 somite stage, versus control
[3] = tested on: vascular endothelial cell; settings: in vitro; cited from earlier work
zebrafish blood vessels = settings: Chan et al., 2002; cited from earlier work
[4] = 10 μM, stage at treatment 6 hpf, time treated 24 h
[5] = 10 μM, stage at treatment 15 hpf, time treated 24 h
[6] = 10 μM, stage at treatment 24 hpf, time treated 6 h

In the case of `Cc1cc(C)c(/C=C2\C(=O)Nc3ccccc32)[nH]1` [SU5416], the “Metastases, microvessel formation and apoptosis” value (mouse xenograft models) is listed as “inhibit the formation of metastases and microvessel formation and increase apoptosis of both tumor cells and tumor endothelial cells”, the Plasma level [1] is listed as 5 µM and the Percent full effect ([2]; 5 μM, stage at treatment 6 hpf, time treated 24 h) is listed as 100%. The Percent full effect ([2]; 5 μM, stage at treatment 15 hpf, time treated 24 h) was 77%, the Percent full effect ([2]; 5 μM, stage at treatment 24 hpf, time treated 6 h) was 60% and the “Disruption of pre-existing intersegmental vessels” value ([2]; 10 μM for six hours beginning at 24 hpf, embryo at 30 hpf) was “A single intersegmental vessel (indicated by arrow) remains”. The Intersegmental vessel formation ([2]; 10 μM, embryo at 30 hpf) was “No intersegmental vessels are observed; also recorded: completely blocked intersegmental vessel formation”, the Percent full effect [2, 4] was 100% and the Percent full effect ([2]; 10 μM, stage at treatment 15 hpf, time treated 6 h) was 100%. The Percent full effect [2, 5] was 100%, the Percent full effect [2, 6] was 100% and the Phenotypic response [2] was “Dorsal aorta, caudal”. For the same compound, the “Recovery time of treated embryos” value ([2]; comparison SU5416 versus SU6668) was “required a longer recovery time than those treated with SU6668”, the “Distribution in treated embryos” value ([2]; difficult to remove even after many hours of soaking in fresh water) was “highly concentrated in the yolk of treated embryos” and the “Concentrations of the compounds required to see these effects (complete block of intersegmental vessel formation)” value [2] was 10 µM. The “Blood vessels in the head that form by angiogenesis” value [2] was “blood vessels in the head that form by angiogenesis were not observed”, the “Effect on pre-existing blood vessels” value [2] was “disrupted pre- existing blood vessels” and the “Migration pattern of VEGFR2 expressing cells toward the midline” value [2] was “No difference was observed in the migration pattern of VEGFR2 expressing cells”. For the same compound, the “VEGF-induced vascular endothelial cell proliferation” value [3] was “inhibit VEGF-induced vascular endothelial cell proliferation in vitro”.

In the case of `Cc1[nH]c(/C=C2\C(=O)Nc3ccccc32)c(C)c1CCC(=O)O` [SU6668], the “Metastases, microvessel formation and apoptosis” value (mouse xenograft models) is listed as “inhibit the formation of metastases and microvessel formation and increase apoptosis of both tumor cells and tumor endothelial cells”, the Percent full effect [2, 4] is listed as 100% and the Percent full effect [2, 5] is listed as 100%. The Percent full effect [2, 6] was 87%, the Intersegmental vessel formation ([2]; 15 μM, embryo at 30 hpf) was “No intersegmental vessels are observed; also recorded: completely blocked intersegmental vessel formation” and the Percent full effect ([2]; 15 μM, stage at treatment 6 hpf, time treated 24 h) was 100%. It also gave a Percent full effect ([2]; 15 μM, stage at treatment 15 hpf, time treated 6 h) of 100%, a Percent full effect ([2]; 15 μM, stage at treatment 15 hpf, time treated 24 h) of 100% and a Percent full effect ([2]; 15 μM, stage at treatment 24 hpf, time treated 6 h) of 100%. The Phenotypic response [2] was “Dorsal aorta, caudal”, the “Intersegmental vessels after recovery” value ([2]; larva at 5 dpf, treated overnight with 15 μM at 2 dpf, recovered 3 days in fresh water, some vessels migrating abnormally) was “Intersegmental vessels are reforming” and the “Concentrations of the compounds required to see these effects (complete block of intersegmental vessel formation)” value [2] was 15 µM. For the same compound, the “Blood vessels in the head that form by angiogenesis” value [2] was “blood vessels in the head that form by angiogenesis were not observed”, the “Effect on pre-existing blood vessels” value [2] was “disrupted pre- existing blood vessels” and the “Migration pattern of VEGFR2 expressing cells toward the midline” value [2] was “No difference was observed in the migration pattern of VEGFR2 expressing cells”. For the same compound, the “VEGF-induced vascular endothelial cell proliferation” value [3] was “inhibit VEGF-induced vascular endothelial cell proliferation in vitro”.

For `Clc1ccc(Nc2nnc(Cc3ccncc3)c3ccccc23)cc1` [PTK787/ZK222584], the “Formation of zebrafish blood vessels” value (zebrafish blood vessels) is listed as “affect the formation of zebrafish blood vessels”.
